# Test results as given in PMC11487561 (ACS Chemical Neuroscience, 2024).
# What was measured:
# human M1 = human M1 (Homo sapiens, UniProt P11229); assay: Calcium mobilization assay, muscarinic selectivity; type: cell-based
# [1] = Binding in plasma from rat (equilibrium dialysis); type: in vitro ADME; settings: fraction unbound, equilibrium dialysis, read-out: rat fu,plasma
# Protocol: Binding in plasma from rat and human.
# Determination of compounds’ fraction unbound (f u) in plasma from rat and human was conducted in vitro via equilibrium dialysis using HTDialysis membrane plates. Dialysis membranes (four paired strips per HTD assay) were hydrated as described by the manufacturer and inserted into the HTD plate, which was assembled and prepared for sample addition by the dispensing of blank buffer (DPBS, 100 µL/well) into the ‘top half’ of each membrane-split well. Each compound was diluted into plasma from each species (5 µM final concentration), which was aliquoted in triplicate to the ‘bottom half’ of the prepared HTD plate wells. The HTD plate was sealed and incubated for 6 hours at 37 °C. Following incubation, each well (both top and bottom halves) were transferred (20 µL) to the corresponding wells of a 96-shallow-well (V-bottom) plate. The daughter plates were then matrix-matched (buffer side wells received equal volume of plasma, and plasma side wells received equal volume of buffer), and extraction solution (120 µL; acetonitrile containing 50 nM carbamazepine as IS) was added to all wells of both daughter plates to precipitate protein and extract test article. The plates were then sealed and centrifuged (3500 rcf) for 10 minutes at ambient temperature. Supernatant (60 µL) from each well of the daughter plates was then transferred to the corresponding wells of new daughter plates (96-shallow-well, V bottom) containing water (Milli-Q, 60 µL/well), and the plates were sealed in preparation for LC-MS/MS analysis (see below). fu was calculated as (analyte to IS MS peak area ratio from Trans-buffer side) / (analyte to IS MS peak area ratio from Cis-plasma side). Mean values for each species were calculated from 3 replicates.
# [2] = test system: amphetamine-induced hyperlocomotion in rats; assay: Rat amphetamine-induced hyperlocomotion (AHL); type: in vivo; settings: for mean reversal of AHL: listed as VU6016235
# Protocol: Rat Amphetamine-Induced Hyperlocomotion (AHL) Protocol
# Male Harlan Sprague Dawley rats with a mean body weight of 240 g (range 221-264 g) were tested in SmartFrame Open Field locomotor activity test chambers to automatically record locomotor activity. All rats were habituated in locomotor activity enclosures for 30 min, followed by pretreatment by oral gavage for an additional 30 min with either vehicle or a dose of VU6016235 or the comparator M 4 PAM VU0467154. Next, rats were injected subcutaneously with vehicle or a dose of 0.75 mg/kg amphetamine and then monitored for an additional 60 min. Changes in locomotor activity were recorded for a total of 120 min. Locomotor data were expressed as the number of photobeam breaks/5 min intervals across the 120-min test session or as the total ambulation, calculated as sum of photobeam beam breaks from the time of amphetamine administration (60 min) until the end of the study (120 min). Time course data were analyzed by two-way ANOVA with main effects of treatment and time; changes in total ambulation were analyzed by one-way ANOVA followed by Dunnett’s post hoc test (GraphPad Prism 7 [GraphPad Software, San Diego, CA]). For all tests, α ≤ 0.05 was considered to represent statistical significance.
# Finally, percent reversal data were calculated in Microsoft Excel using the following formula: Percent Reversal = 100 - {[(total ambulation in individual animal from t = 60 to t = 120) / (mean total ambulation […]
# from t=60 to t=120 in the VAMP group)] * 100}. Mean percent reversal ± S.E.M. was calculated for each dose group using GraphPad Prism 7.
# At the end of this behavioral study, each rat was euthanized, then decapitated, and the plasma and brain tissues were collected for the evaluation of exposure levels of VU6016235-05 or VU0467154-9A by pharmacokinetic analysis. […]
# 4 strains ± S9 = assay: Mini Ames test; type: cell-based
# Adenosine A3 = molecular target: T1, Adenosine A3 (Homo sapiens, UniProt P0DMS8); assay: Lead Profiling Screen – Eurofins Panlabs; type: binding; settings: read-out: % inh at 10 μM
# T1 construct: Eurofins Panlabs
# Adrenergic α1D = molecular target: T2, Adrenergic α1D (Homo sapiens, UniProt P25100); assay: Lead Profiling Screen – Eurofins Panlabs; type: binding; settings: read-out: % inh at 10 μM
# T2 construct: Eurofins Panlabs (contract screen)
# Adrenergic α2A = molecular target: T3, Adrenergic α2A (Homo sapiens, UniProt P08913); assay: Lead Profiling Screen – Eurofins Panlabs; type: binding; settings: read-out: % inh at 10 μM
# T3 construct: Eurofins Panlabs (contract screen)
# Adrenergic β1 = molecular target: T4, Adrenergic β1 (Homo sapiens, UniProt P08588); assay: Lead Profiling Screen – Eurofins Panlabs; type: binding; settings: read-out: % inh at 10 μM
# T4 construct: Eurofins Panlabs (contract screen)
# T4 sequence (P08588 whole entry): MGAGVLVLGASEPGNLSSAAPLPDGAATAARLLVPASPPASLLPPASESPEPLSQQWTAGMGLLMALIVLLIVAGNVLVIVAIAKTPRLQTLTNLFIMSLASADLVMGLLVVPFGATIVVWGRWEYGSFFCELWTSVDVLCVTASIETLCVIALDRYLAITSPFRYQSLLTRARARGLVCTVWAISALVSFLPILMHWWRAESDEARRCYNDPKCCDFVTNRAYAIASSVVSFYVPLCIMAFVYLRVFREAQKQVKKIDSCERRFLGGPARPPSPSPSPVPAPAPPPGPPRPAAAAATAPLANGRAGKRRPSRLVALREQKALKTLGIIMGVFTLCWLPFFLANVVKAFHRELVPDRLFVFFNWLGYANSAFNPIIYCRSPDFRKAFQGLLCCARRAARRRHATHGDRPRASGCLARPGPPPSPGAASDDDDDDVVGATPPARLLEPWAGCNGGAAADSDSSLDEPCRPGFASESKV
# Androgen (Testosterone) = assay: Lead Profiling Screen – Eurofins Panlabs; type: binding, human
# Dopamine D3 = molecular target: T5, Dopamine D3 (Homo sapiens, UniProt P35462); assay: Lead Profiling Screen – Eurofins Panlabs; type: binding; settings: read-out: % inh at 10 μM
# T5 construct: Eurofins Panlabs (contract screen)
# [3] = test system: GABAA, Flunitrazepam, Central; assay: Lead Profiling Screen – Eurofins Panlabs; type: binding, rat
# Glucocorticoid = Glucocorticoid (Homo sapiens, UniProt P04150); assay: Lead Profiling Screen – Eurofins Panlabs; type: binding; settings: read-out: % inh at 10 μM
# Chain of Glucocorticoid (P04150 whole entry): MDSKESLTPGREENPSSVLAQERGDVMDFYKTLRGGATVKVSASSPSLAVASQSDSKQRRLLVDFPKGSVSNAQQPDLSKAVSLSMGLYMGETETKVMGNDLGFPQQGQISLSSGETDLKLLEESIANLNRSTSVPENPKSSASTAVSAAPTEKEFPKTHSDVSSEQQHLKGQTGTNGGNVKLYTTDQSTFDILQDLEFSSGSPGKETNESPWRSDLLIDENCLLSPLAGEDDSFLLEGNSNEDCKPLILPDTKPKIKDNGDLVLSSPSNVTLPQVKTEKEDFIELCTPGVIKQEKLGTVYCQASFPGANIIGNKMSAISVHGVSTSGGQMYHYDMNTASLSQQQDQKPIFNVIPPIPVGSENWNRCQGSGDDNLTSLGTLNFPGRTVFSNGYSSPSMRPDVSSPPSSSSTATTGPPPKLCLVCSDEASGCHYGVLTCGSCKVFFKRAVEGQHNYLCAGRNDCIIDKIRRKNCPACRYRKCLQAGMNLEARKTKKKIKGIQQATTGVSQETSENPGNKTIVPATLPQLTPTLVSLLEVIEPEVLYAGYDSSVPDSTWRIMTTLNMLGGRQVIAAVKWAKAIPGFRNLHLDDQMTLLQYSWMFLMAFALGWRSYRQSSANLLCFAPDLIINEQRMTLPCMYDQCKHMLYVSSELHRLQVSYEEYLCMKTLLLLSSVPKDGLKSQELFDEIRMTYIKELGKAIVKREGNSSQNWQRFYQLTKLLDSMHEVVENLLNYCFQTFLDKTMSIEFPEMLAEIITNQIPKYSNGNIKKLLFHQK
# Glutamate, Kainate = assay: Lead Profiling Screen – Eurofins Panlabs; type: binding, rat
# Histamine H1 = Histamine H1 (Homo sapiens, UniProt P35367); assay: Lead Profiling Screen – Eurofins Panlabs; type: binding; settings: read-out: % inh at 10 μM
# Chain of Histamine H1 (P35367 whole entry): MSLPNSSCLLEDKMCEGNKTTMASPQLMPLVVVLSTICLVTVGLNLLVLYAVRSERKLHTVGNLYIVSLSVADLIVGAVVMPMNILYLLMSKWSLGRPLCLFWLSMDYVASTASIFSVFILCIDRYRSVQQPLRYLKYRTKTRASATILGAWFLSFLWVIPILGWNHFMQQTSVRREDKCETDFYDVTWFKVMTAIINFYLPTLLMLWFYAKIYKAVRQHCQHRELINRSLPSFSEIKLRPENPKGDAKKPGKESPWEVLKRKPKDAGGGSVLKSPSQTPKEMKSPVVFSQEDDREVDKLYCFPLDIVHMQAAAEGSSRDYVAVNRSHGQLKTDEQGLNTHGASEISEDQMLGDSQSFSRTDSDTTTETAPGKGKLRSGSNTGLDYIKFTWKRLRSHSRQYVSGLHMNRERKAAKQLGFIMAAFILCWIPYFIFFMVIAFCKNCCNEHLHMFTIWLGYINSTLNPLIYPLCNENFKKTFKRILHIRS
# Histamine H3 = Histamine H3 (Homo sapiens, UniProt Q9Y5N1); assay: Lead Profiling Screen – Eurofins Panlabs; type: binding; settings: read-out: % inh at 10 μM
# Melatonin MT1 = Melatonin MT1 (Homo sapiens, UniProt P48039); assay: Lead Profiling Screen – Eurofins Panlabs; type: binding; settings: read-out: % inh at 10 μM
# Muscarinic M2 = Muscarinic M2 (Homo sapiens, UniProt P08172); assay: Lead Profiling Screen – Eurofins Panlabs; type: binding; settings: read-out: % inh at 10 μM
# Chain of Muscarinic M2 (P08172 whole entry): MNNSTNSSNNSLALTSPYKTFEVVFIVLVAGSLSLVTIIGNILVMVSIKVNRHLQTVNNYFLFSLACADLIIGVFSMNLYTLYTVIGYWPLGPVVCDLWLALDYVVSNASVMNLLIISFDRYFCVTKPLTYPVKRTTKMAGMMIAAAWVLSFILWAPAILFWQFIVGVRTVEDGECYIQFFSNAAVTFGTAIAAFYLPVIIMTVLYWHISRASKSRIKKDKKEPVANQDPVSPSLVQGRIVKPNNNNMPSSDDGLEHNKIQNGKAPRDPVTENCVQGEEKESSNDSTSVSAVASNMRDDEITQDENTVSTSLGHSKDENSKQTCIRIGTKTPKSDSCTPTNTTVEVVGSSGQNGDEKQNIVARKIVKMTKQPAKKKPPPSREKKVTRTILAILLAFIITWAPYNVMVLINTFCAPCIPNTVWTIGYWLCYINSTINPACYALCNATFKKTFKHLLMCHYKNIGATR
# Muscarinic M3 = Muscarinic M3 (Homo sapiens, UniProt P20309); assay: Lead Profiling Screen – Eurofins Panlabs; type: binding; settings: read-out: % inh at 10 μM
# [4] = molecular target: Nicotinic Acetylcholine α1, Bungarotoxin (Homo sapiens, UniProt P02708+P07510+Q07001); assay: Lead Profiling Screen – Eurofins Panlabs; type: binding; settings: read-out: % inh at 10 μM
# Chain of Nicotinic Acetylcholine α1, Bungarotoxin (P02708 21-457): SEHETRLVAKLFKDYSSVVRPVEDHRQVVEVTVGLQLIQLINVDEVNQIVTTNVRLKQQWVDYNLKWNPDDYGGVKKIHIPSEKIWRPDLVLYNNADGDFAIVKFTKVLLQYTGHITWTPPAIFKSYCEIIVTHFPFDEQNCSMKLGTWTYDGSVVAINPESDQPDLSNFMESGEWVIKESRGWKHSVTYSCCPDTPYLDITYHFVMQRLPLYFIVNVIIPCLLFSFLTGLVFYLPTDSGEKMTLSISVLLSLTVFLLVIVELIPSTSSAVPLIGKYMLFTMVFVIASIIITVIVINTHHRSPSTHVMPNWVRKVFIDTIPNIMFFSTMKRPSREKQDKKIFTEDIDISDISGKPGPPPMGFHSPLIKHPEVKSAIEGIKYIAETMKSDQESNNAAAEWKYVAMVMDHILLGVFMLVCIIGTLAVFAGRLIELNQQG
# Chain of Nicotinic Acetylcholine α1, Bungarotoxin (Q07001 22-517): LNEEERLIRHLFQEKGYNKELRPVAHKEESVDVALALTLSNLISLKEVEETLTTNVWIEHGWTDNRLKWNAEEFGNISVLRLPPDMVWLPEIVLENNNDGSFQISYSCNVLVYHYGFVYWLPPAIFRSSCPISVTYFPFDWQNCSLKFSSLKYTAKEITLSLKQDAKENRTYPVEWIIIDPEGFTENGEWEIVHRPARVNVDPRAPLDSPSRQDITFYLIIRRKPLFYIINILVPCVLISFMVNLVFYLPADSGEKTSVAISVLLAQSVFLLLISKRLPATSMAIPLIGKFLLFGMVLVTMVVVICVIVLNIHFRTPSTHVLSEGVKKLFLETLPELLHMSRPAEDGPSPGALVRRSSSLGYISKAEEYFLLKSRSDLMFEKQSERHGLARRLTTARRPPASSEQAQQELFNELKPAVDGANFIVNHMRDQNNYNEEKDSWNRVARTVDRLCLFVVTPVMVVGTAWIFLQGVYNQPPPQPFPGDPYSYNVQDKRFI
# Chain of Nicotinic Acetylcholine α1, Bungarotoxin (P07510 23-517): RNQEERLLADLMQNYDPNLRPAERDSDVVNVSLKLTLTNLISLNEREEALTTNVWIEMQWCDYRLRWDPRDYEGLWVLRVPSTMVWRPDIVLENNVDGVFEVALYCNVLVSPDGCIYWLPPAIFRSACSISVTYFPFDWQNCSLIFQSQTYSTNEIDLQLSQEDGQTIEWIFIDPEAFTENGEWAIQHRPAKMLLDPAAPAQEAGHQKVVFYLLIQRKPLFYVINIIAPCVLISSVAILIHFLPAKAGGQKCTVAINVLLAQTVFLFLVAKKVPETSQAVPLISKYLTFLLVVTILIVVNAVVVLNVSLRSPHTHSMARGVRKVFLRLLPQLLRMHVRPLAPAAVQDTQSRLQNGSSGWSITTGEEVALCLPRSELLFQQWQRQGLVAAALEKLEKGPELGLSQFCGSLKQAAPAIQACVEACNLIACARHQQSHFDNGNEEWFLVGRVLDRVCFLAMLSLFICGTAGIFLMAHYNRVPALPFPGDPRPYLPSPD
# Chain of Nicotinic Acetylcholine α1, Bungarotoxin (P11230 24-501, further chain): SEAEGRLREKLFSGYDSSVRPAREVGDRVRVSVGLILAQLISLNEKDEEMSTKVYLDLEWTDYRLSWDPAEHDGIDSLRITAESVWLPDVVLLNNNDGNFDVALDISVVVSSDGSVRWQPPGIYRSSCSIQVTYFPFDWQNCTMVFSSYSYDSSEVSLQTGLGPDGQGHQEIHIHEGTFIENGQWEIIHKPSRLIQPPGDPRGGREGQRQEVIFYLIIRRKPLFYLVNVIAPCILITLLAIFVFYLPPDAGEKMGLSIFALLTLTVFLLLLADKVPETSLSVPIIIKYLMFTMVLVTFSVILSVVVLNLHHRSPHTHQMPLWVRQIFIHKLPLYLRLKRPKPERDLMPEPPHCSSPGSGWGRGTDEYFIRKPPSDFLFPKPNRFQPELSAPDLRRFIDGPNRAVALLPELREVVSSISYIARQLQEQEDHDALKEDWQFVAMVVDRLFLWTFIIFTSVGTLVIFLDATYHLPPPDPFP
# Purinergic P2X = assay: Lead Profiling Screen – Eurofins Panlabs; type: binding, rabbit
# Rolipram = assay: Lead Profiling Screen – Eurofins Panlabs; type: binding, rat
# [5] = molecular target: Serotonin (5-Hydroxytryptamine) 5-HT1A (Homo sapiens, UniProt P08908); assay: Lead Profiling Screen – Eurofins Panlabs; type: binding; settings: read-out: % inh at 10 μM
# Chain of Serotonin (5-Hydroxytryptamine) 5-HT1A (P08908 whole entry): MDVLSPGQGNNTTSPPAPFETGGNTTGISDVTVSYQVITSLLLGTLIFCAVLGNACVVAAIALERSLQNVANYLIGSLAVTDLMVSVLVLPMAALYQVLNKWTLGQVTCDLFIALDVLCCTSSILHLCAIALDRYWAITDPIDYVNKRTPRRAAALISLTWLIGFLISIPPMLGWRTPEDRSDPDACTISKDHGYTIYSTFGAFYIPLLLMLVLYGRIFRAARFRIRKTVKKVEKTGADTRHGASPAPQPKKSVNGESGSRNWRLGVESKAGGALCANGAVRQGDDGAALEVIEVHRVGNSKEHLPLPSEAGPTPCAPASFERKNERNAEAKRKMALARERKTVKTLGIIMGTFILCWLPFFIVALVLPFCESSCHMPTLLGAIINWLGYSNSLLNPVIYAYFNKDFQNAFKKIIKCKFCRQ
# Thyroid Hormone = assay: Lead Profiling Screen – Eurofins Panlabs; type: binding, rat
# [6] = molecular target: Transporter, Serotonin (5-Hydroxytryptamine) (SERT) (Homo sapiens, UniProt P31645); assay: Lead Profiling Screen – Eurofins Panlabs; type: binding; settings: read-out: % inh at 10 μM
# Chain of human M1 (P11229 whole entry): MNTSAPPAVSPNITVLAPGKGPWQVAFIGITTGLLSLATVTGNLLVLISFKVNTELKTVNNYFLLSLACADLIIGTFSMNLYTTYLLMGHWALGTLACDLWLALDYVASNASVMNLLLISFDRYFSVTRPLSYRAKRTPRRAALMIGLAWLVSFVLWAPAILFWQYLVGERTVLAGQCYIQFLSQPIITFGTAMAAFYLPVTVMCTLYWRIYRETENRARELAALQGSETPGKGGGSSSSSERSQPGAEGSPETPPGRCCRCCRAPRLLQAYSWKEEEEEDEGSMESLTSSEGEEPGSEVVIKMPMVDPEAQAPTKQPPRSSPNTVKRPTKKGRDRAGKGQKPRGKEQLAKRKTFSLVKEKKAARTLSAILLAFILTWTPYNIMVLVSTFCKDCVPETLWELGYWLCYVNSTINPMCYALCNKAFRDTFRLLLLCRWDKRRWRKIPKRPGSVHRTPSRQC
structure (smiles),measurement,setting,value
Cc1nc(C)c2c(n1)sc1c(NCc3ccc(C(C)(C)O)cc3)nccc12 [22g],human M1 %Ach Max,human M1,inactive
same,human M1 EC50,human M1,inactive
same,"fraction unbound at 6 h, 5 µM",[1],0.024
same,mean % reversal of AHL,[2]; 0.56 mg/kg p.o. + amphetamine 0.75 mg/kg s.c.,12.8 ± 3.9%
same,mean reversal of AHL,[2]; 3 mg/kg p.o. + amphetamine 0.75 mg/kg s.c.,41.4%
same,mean reversal of AHL,[2]; 10 mg/kg p.o. + amphetamine 0.75 mg/kg s.c.,54.2%
same,"MED, reversal of AHL",[2]; oral administration,1 mg/kg
same,Mini Ames test result,4 strains ± S9,negative
same,inhibition at 10 µM,Adenosine A3,22%
same,inhibition at 10 µM,Adrenergic α1D,5%
same,inhibition at 10 µM,Adrenergic α2A,-9%
same,inhibition at 10 µM,Adrenergic β1,3%
same,% inh at 10 μM,Androgen (Testosterone),5%
same,inhibition at 10 µM,Dopamine D3,3%
same,% inh at 10 μM,[3],13%
same,inhibition at 10 µM,Glucocorticoid,-10%
same,% inh at 10 μM,"Glutamate, Kainate",-8%
same,inhibition at 10 µM,Histamine H1,-11%
same,inhibition at 10 µM,Histamine H3,25%
same,inhibition at 10 µM,Melatonin MT1,7%
same,inhibition at 10 µM,Muscarinic M2,10%
same,inhibition at 10 µM,Muscarinic M3,4%
same,inhibition at 10 µM,[4],-8%
same,% inh at 10 μM,Purinergic P2X,0%
same,% inh at 10 μM,Rolipram,5%
same,inhibition at 10 µM,[5],7%
same,% inh at 10 μM,Thyroid Hormone,1%
same,inhibition at 10 µM,[6],1%
